The values below are quoted from earlier work in patent US20040097717A1, “Control of aerial branching” (priority 2000, published 2004).

One series deals with lateral buds. The following applies: exogenous application to lateral buds (Tames et al., 1979).
A further series deals with Phaseolus vulgaris. To be noted: decapitated Phaseolus vulgaris, IAA application (Knox and Wareing, 1984).

Consider `CC1=CC(=O)CC(C)(C)[C@@]1(O)/C=C/C(C)=C\C(=O)O` [ABA, abscisic acid], for which, in the series with lateral buds, the lateral bud elongation entry is “inhibited elongation”.

Turning to `O=C(O)Cc1c[nH]c2ccccc12` [IAA], the “lateral bud elongation / decrease in ABA level after decapitation” value with Phaseolus vulgaris was “reversed”.
